Literature values, collected in article PMC9890135 (Molecular Cancer Therapeutics, 2022).

Conditions: cited from earlier work

For `COc1cc2nccc(Oc3ccc(NC(=O)C4(C(=O)Nc5ccc(F)cc5)CC4)cc3)c2cc1OC` [Cabozantinib, cabozantinib], the plasma half-life is listed as “approximately 99 hours”.
